Assay results reported in article PMC12294314, “Bioactive Properties of Persea americana Peel Extract and Their Role in Hypercholesterolemia Management and Cardiovascular Health” (Foods, 2025).
Read-outs that look alike come from different tables or passages of the source.

Tests used:
HepG2 cells = test: Reactive oxygen species (ROS) production in HepG2 cells (DCFDA); assay type: cell-based, human; details: TBHP 200 µM alone, 6 h, PBS control = 100%
Protocol: The quantification of reactive oxygen species (ROS) produced in the HepG2 cell line was assessed. HepG2 cells were plated at a concentration of 2.5 × 10^4 cells/well in a black, transparent-bottom 96-well microplate and incubated for 24 h. Afterward, a solution of the 2′,7′–dichlorodifluorescin diacetate (DCFDA) (0.1 mM) was added to the cells and they were incubated in the dark for 45 min. The solution was then removed, and the following samples were applied: a control with only the PBS, tert-butyl hydroperoxide (TBHP) at 200 µM, the extract at 0.164 mg/mL, and a combination of the extract and THBP with their final concentrations being 0.164 mg/mL and 200 µM, respectfully. The microplate was incubated for 6 h in the dark, after which fluorescence was measured with excitation at 495 nm and emission at 527 nm, both at 37 °C (SpectraMax® GEMINI XPS/EM, Molecular Devices®, San Jose, CA, USA). ROS production was determined using Equation (1) by considering that the fluorescence produced by the control group was 100%.(1) ROS Production % =AbsSample/AbsControl × 100 where AbsSample corresponds to the absorbance of the samples and AbsControl corresponds to the absorbance of the control. The assays were carried out in quadruplicate.

[1] = Permeation of extract compounds across Caco-2 monolayer (Papp); assay type: in vitro ADME, human; details: human
Protocol: (§1) The permeation of the extract in Caco-2 cells was evaluated for three phenolic compounds previously identified and quantified, namely chlorogenic acid, catechin, and epicatechin. […] After 6 h, a sample was collected from the basolateral side and analyzed by HPLC-DAD, using a LiChroCART® 250-4 LiChrospher® 100 RP-18 (5 μm) column (Merck KGaA, Darmstadt, Germany), following the conditions described in a previous study.

Caco-2 cells [2] = test: as above; assay type: in vitro ADME, human
Protocol: as §1

Caco-2 cells [3] = test: Cholesterol permeation across differentiated Caco-2 monolayer; assay type: cell-based, human; details: cholesterol 5 mM apical, 6 h, extract 0.240 mg/mL, ezetimibe 0.1 mM (methods) / 0.01 mM (Figure 3 legend)
Protocol: The cholesterol permeation assays were carried out by following the protocol described by Arantes et al.. Caco-2 cells were cultured in a 12-well microplate with inserts (A = 1.1 cm^2) and maintained until differentiation. To evaluate the integrity of the membrane, transepithelial electrical resistance (TEER) of the formed membrane was measured. When the TEER value exceeded 250 Ω·cm^2, it was considered that the membrane was formed.
Subsequently, 0.5 mL of the solutions to be analyzed was added on the apical side of each insert: cholesterol (5 mM) (control), extract (0.240 mg/mL), extract (0.240 mg/mL) with cholesterol (5 mM), and ezetimibe (0.1 mM) with cholesterol (5 mM). On the basolateral side, 1.5 mL of the Hank’s Balanced Salt Solution (HBSS) was added. The cells were incubated at 37 °C in a 5% CO2 atmosphere for 6 h. After this period, the basolateral solution of each well was collected and analyzed by high-performance liquid chromatography coupled to a diode-array detector (HPLC-DAD) using an Elite LaChrom® (HITACHI, VWR, Tokyo, Japan), with an Autosampler L-2200, a Column Oven L-2300, and a Diode Array Detector L 2455 (VWR, Radnor, PA, USA). The column used was LiChroCART® 250-4 LiCrosphere®100 RP-8 (5 μm) (Merk, Darmstadt, Germany). The conditions followed were the ones presented by Pinto et al.. […]

CC(C)(C)OO [TBHP, tert-butyl hydroperoxide]
ROS production (% of control) (HepG2 cells): approximately 395%

Oc1cc(O)c2c(c1)O[C@H](c1ccc(O)c(O)c1)[C@H](O)C2 [Epicatechin (15), (−)-Epicatechin]
Papp at 6 h, 0.24 mg/mL ([1]; Caco-2, Permeability class (from Papp)): > 10 ×10⁻⁶ cm/s | Papp (Caco-2 cells [2]; human, Caco-2, 6 h, 0.24 mg/mL): 24.0 10^−6 cm/s

Oc1cc(O)c2c(c1)OC(c1ccc(O)c(O)c1)C(O)C2 (single isomer, unassigned; (+)) [Catechin (13), (+)-Catechin]
Papp (Caco-2 cells [2]; Caco-2): 14.4 10^−6 cm/s

O=C1[C@H](CC[C@H](O)c2ccc(F)cc2)[C@@H](c2ccc(O)cc2)N1c1ccc(F)cc1 [ezetimibe]
Reduction in cholesterol permeability (Caco-2 cells [3]): 62 ± 5%

O=C(/C=C/c1ccc(O)c(O)c1)O[C@@H]1C[C@](O)(C(=O)O)C[C@@H](O)[C@H]1O [Chlorogenic Acid (3), Chlorogenic Acid]
Papp at 6 h, 0.24 mg/mL ([1]; Caco-2, apical sample: extract (0.240 mg/mL), Caco-2, 6 h, read-out: Papp): 6.5 ×10⁻⁶ cm/s | Papp at 6 h, 0.24 mg/mL ([1]; Caco-2, apical sample: extract, Caco-2, read-out: Permeability class (from Papp)): 1 to 10 ×10⁻⁶ cm/s
